This is an account of results in US11524966B1 (Valo Early Discovery, Inc., priority 2017, dated 2022).

SMILES strings stand for the structures. Where only a bound is given, the exact number is not on record here.

One may read the IC50 as the concentration at which inhibition is half-maximal.

The target of the test is T1, USP25 (USP25-His6, Boston Biochem E-546) (Homo sapiens, UniProt Q9UHP3).
T1 construct: His6; purchased Boston Biochem E-546
T1 sequence (Q9UHP3 1-1055): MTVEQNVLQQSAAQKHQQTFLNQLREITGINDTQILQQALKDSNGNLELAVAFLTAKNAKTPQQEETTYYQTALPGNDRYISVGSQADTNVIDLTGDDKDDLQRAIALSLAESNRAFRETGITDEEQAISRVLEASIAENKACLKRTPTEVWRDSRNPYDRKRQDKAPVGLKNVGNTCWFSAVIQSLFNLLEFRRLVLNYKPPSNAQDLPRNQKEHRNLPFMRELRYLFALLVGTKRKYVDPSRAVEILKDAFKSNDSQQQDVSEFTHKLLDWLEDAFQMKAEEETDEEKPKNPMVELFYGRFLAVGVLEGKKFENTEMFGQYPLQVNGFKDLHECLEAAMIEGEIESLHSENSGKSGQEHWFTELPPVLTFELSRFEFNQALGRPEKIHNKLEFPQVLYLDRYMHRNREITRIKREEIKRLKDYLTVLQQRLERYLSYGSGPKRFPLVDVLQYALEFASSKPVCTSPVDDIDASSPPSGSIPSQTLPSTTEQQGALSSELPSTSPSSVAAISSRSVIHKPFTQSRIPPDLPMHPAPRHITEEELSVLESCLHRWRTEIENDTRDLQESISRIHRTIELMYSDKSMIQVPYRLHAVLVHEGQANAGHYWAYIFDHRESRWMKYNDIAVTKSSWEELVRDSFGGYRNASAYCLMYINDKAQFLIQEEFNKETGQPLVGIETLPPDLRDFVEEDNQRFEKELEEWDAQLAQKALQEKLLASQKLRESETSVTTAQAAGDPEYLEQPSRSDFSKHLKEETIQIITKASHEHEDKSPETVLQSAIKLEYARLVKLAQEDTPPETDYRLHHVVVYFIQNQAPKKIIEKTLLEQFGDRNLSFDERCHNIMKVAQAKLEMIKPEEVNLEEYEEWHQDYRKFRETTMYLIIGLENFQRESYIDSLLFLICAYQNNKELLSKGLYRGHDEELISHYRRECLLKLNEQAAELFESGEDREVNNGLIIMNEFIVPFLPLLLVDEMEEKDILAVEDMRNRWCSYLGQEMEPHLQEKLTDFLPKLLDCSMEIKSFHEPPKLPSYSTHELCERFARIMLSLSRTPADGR
Briefly: Ubiquitin-Rhodamine 110 Assay for USP25 Activity, Example A-2. In kind it is biochemical. The settings on record: Ubiquitin-Rhodamine 110 assay, Example A-2; read-out: USP25 A-2 IC50 range. Put shortly: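 Read-out: Rh110 fluorescence (ex 485, em 535 nm) after 45 min RT turnover of 25 nM Ub-Rh110 by 75 pM USP25-His6, quenched with 10 mM citric acid. Compounds at 25 μM–1.3 nM, preincubated 30 min with enzyme. IC50 from 4-parameter logistic fit.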
Turning to `COC[C@H]1CN(c2ccc3c(c2)OC[C@H](NC(=O)c2sc4nc(C)ccc4c2N)C3)C[C@H]1N` [Example 162, 3-amino-N-[(3R)-7-[(3S,4S)-3-amino-4-(methoxymethyl)pyrrolidin-1-yl]-3,4-dihydro-2H-1-benzopyran-3-yl]-6-methylthieno[2,3-b]pyridine-2-carboxamide], the half-maximal inhibitory concentration (IC50) was in the range of 50 to 200 nM.
In the case of `Cc1ccc2c(N)c(C(=O)N[C@H]3COc4cc(N5CC6CNCC(C5)O6)c(F)cc4C3)sc2n1` [Example 106, 3-amino-N-[(3R)-6-fluoro-7-{9-oxa-3,7-diazabicyclo[3.3.1]nonan-3-yl}-3,4-dihydro-2H-1-benzopyran-3-yl]-6-methylthieno[2,3-b]pyridine-2-carboxamide], the IC50 fell in the range of 50 to 200 nM.
Under `Cc1cnc2c(N)c(C(=O)N[C@H]3COc4c(F)c(N5CC6CCC(C5)N6)cc(F)c4C3)sc2n1` [Example 107, 7-amino-N-[(3R)-7-{3,8-diazabicyclo[3.2.1]octan-3-yl}-5,8-difluoro-3,4-dihydro-2H-1-benzopyran-3-yl]-3-methylthieno[2,3-b]pyrazine-6-carboxamide] stands 1 to 50 nM; under `COc1ccc2c(N)c(C(=O)N[C@H]3CCc4cc(N5C[C@H](OC)[C@@H](N)C5)ccc4C3)sc2n1` [Example 134, 3-amino-N-[(2S)-6-[(3S,4S)-3-amino-4-methoxypyrrolidin-1-yl]-1,2,3,4-tetrahydronaphthalen-2-yl]-6-methoxythieno[2,3-b]pyridine-2-carboxamide], > 2000 nM.
As for `CCn1ccc2cc(C(=O)N[C@@H]3CCc4cc(N5C[C@H](OC)[C@@H](N)C5)cc(F)c4C3)nnc21` [Example 139, N-[(2R)-6-[(3S,4S)-3-amino-4-methoxypyrrolidin-1-yl]-8-fluoro-1,2,3,4-tetrahydronaphthalen-2-yl]-7-ethyl-7H-pyrrolo[2,3-c]pyridazine-3-carboxamide], the figure is > 2000 nM; as for `CO[C@H]1CN(c2ccc3c(c2)OC[C@H](NC(=O)c2sc4nc(C)ccc4c2N)C3)C[C@H]1N` [Example 122, 3-amino-N-[(3R)-7-[(3R,4S)-3-amino-4-methoxypyrrolidin-1-yl]-3,4-dihydro-2H-1-benzopyran-3-yl]-6-methylthieno[2,3-b]pyridine-2-carboxamide], 200 to 2000 nM; as for `CCO[C@H]1CN(c2ccc3c(c2)OC[C@H](NC(=O)c2sc4nc(C)ccc4c2N)C3)C[C@H]1N` [Example 152], 200 to 2000 nM.
As for `Cc1ccc2c(N)c(C(=O)N[C@H]3COc4cc(N5CC[C@H]6CNC[C@H]65)ccc4C3)sc2n1` [Example 166, N-[(3R)-7-[(3aS,6aS)-octahydropyrrolo[2,3-c]pyrrol-1-yl]-3,4-dihydro-2H-1-benzopyran-3-yl]-3-amino-6-methylthieno[2,3-b]pyridine-2-carboxamide], the figure is 50 to 200 nM; as for `COC[C@H]1CNCCN1c1ccc2c(c1)OC[C@H](NC(=O)c1sc3nc(C)ccc3c1N)C2` [Example 156, 3-amino-N-[(3R)-7-[(21)-2-(methoxymethyl)piperazin-1-yl]-3,4-dihydro-2H-1-benzopyran-3-yl]-6-methylthieno[2,3-b]pyridine-2-carboxamide], 200 to 2000 nM.
As to `COC[C@@H]1CN(c2ccc3c(c2)OC[C@H](NC(=O)c2sc4nc(C)ccc4c2N)C3)CCN1` [Example 158, 3-amino-N-[(3R)-7-[(3S)-3-(methoxymethyl)piperazin-1-yl]-3,4-dihydro-2H-1-benzopyran-3-yl]-6-methylthieno[2,3-b]pyridine-2-carboxamide], the IC50 fell in the range of 200 to 2000 nM.
`Cc1ccc2c(N)c(C(=O)N[C@H]3COc4c(F)c(N5CC6CCC(C5)N6)cc(F)c4C3)oc2n1` [Example 172, 3-amino-N-[(3R)-7-{3,8-diazabicyclo[3.2.1]octan-3-yl}-5,8-difluoro-3,4-dihydro-2H-1-benzopyran-3-yl]-6-methylfuro[2,3-b]pyridine-2-carboxamide]: the IC50 was > 2000 nM.
On to `CO[C@H]1CN(c2ccc3c(c2)CC[C@H](NC(=O)c2sc4nc(C)sc4c2N)C3)C[C@@H]1N` [Example 133, 6-amino-N-[(2S)-6-[(3S,4S)-3-amino-4-methoxypyrrolidin-1-yl]-1,2,3,4-tetrahydronaphthalen-2-yl]-2-methylthieno[2,3-d][1,3]thiazole-5-carboxamide], for which the IC50 is > 2000 nM.
For `CO[C@@H]1CN(c2cc(F)c3c(c2)OC[C@H](NC(=O)c2sc4nc(C)ccc4c2N)C3)C[C@@H]1N` [Example 145, 3-amino-N-[(3R)-7-[(3S,4R)-3-amino-4-methoxypyrrolidin-1-yl]-5-fluoro-3,4-dihydro-2H-1-benzopyran-3-yl]-6-methylthieno[2,3-b]pyridine-2-carboxamide], the IC50 was in the range of 200 to 2000 nM.
Regarding `CO[C@@H]1CN(c2ccc3c(c2)OC[C@H](NC(=O)c2sc4nc(C)ccc4c2N)C3)C[C@@H]1N` [Example 121, 3-amino-N-[(3R)-7-[(3S,4R)-3-amino-4-methoxypyrrolidin-1-yl]-3,4-dihydro-2H-1-benzopyran-3-yl]-6-methylthieno[2,3-b]pyridine-2-carboxamide], the IC50 was 200 to 2000 nM.
`Cc1ccc2c(N)c(C(=O)N[C@H]3COc4cc(N5CC6CCC(C5)N6)cc(F)c4C3)oc2n1` [Example 170, 3-amino-N-[(3R)-7-{3,8-diazabicyclo[3.2.1]octan-3-yl}-5-fluoro-3,4-dihydro-2H-1-benzopyran-3-yl]-6-methylfuro[2,3-b]pyridine-2-carboxamide]: the IC50 is > 2000 nM.
Consider `CO[C@H]1CN(c2cc(F)c3c(c2)OC[C@H](NC(=O)c2sc4nc(C)ccc4c2N)C3)C[C@H]1N` [Example 146], for which the IC50 is 200 to 2000 nM.
In the case of `Cc1ccc2c(N)c(C(=O)N[C@H]3COc4cc(N5C[C@H](OC6CCC6)[C@@H](N)C5)ccc4C3)sc2n1` [Example 141, 3-amino-N-[(3R)-7-[(3S,4S)-3-amino-4-cyclobutoxypyrrolidin-1-yl]-3,4-dihydro-2H-1-benzopyran-3-yl]-6-methylthieno[2,3-b]pyridine-2-carboxamide], the IC50 fell in the range of 50 to 200 nM.
For `CO[C@H]1CN(c2ccc3c(c2)OC[C@H](NC(=O)c2sc4nc(C)cnc4c2N)C3)C[C@@H]1N` [Example 117, 7-amino-N-[(3R)-7-[(3S,4S)-3-amino-4-methoxypyrrolidin-1-yl]-3,4-dihydro-2H-1-benzopyran-3-yl]-3-methylthieno[2,3-b]pyrazine-6-carboxamide], the half-maximal inhibitory concentration (IC50) lay in the range of 200 to 2000 nM.
As for `Cc1ccc2c(N)c(C(=O)N[C@H]3COc4cc(N5CC[C@@H]6CNC[C@@H]65)ccc4C3)sc2n1` [Example 165, N-[(3R)-7-[(3aR,6aR)-octahydropyrrolo[2,3-c]pyrrol-1-yl]-3,4-dihydro-2H-1-benzopyran-3-yl]-3-amino-6-methylthieno[2,3-b]pyridine-2-carboxamide], the figure is 50 to 200 nM; as for `CO[C@@H]1CN(c2ccc3c(c2)OC[C@H](NC(=O)c2sc4nc(C)ccc4c2N)C3)CC[C@H]1N` [Example 129, 3-amino-N-[(3R)-7-[(3R,4R)-4-amino-3-methoxypiperidin-1-yl]-3,4-dihydro-2H-1-benzopyran-3-yl]-6-methylthieno[2,3-b]pyridine-2-carboxamide], 200 to 2000 nM.
As to `Cc1ccc2c(N)c(C(=O)N[C@H]3COc4c(F)c(N5C[C@@H]6C[C@H]5CN6)cc(F)c4C3)sc2n1` [Example 110, 3-amino-N-[(3R)-7-[(1S,4S)-2,5-diazabicyclo[2.2.1]heptan-2-yl]-5,8-difluoro-3,4-dihydro-2H-1-benzopyran-3-yl]-6-methylthieno[2,3-b]pyridine-2-carboxamide], the IC50 was in the range of 50 to 200 nM.
